Experiment [1] deals with Voltage-dependent L-type calcium channel subunit alpha-1C (Homo sapiens, UniProt Q13936). Description: Binding affinity to human Cav1.2 by radio-ligand binding assay.
The target in experiment [2] is T1, Muscarinic acetylcholine receptor M4 (Homo sapiens, UniProt P08173).
T1 sequence (P08173 whole entry): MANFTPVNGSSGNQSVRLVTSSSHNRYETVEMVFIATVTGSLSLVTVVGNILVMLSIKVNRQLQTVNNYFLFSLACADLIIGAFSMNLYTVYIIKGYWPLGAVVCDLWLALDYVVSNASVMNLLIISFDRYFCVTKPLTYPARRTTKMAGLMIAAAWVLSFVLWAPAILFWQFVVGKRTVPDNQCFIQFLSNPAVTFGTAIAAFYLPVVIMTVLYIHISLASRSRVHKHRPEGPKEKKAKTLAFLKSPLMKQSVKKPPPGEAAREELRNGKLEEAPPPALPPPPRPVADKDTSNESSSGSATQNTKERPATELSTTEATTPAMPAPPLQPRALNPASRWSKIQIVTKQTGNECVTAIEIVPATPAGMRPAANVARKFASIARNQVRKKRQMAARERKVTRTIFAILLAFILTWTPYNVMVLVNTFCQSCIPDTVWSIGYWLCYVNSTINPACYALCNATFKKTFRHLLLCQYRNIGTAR
Description: Positive allosteric modulation of human M4 receptor expressed in CHO cells co-expressing Gqui5 by calcium mobilization assay. It counts as functional, cell-based. Particulars: read-out: EC50.

For experiment [3], the target named is Sodium-dependent serotonin transporter (Homo sapiens, UniProt P31645). Description: Displacement of [3H]-Paroxetine from recombinant human SERT expressed in HEK293 cells. It is filed as cell-based.
Sequence of Sodium-dependent serotonin transporter (P31645 whole entry): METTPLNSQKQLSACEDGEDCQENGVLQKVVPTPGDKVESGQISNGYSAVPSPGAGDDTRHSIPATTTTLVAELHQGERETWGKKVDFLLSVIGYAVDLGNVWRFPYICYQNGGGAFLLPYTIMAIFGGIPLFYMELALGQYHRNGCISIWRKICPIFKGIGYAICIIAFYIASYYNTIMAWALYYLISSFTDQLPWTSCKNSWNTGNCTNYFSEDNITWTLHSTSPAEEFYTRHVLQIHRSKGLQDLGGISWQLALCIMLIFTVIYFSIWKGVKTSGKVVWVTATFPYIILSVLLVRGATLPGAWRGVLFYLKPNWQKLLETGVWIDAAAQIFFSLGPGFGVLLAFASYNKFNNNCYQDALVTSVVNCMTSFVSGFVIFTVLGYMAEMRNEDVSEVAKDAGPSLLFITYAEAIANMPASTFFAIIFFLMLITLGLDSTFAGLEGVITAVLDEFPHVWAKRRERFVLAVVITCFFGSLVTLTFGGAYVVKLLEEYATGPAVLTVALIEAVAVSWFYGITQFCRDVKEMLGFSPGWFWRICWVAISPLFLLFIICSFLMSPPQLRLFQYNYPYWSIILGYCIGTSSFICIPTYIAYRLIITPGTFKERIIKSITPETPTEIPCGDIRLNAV
Experiment [4] can be described thus: Inhibition of human adenosine transporter assessed as reduction in [3H]-adenosine uptake.
In experiment [5] the target is Growth hormone secretagogue receptor type 1 (Homo sapiens, UniProt Q92847). In words: Inhibition of ghrelin receptor (unknown origin) by radioligand binding assay.
Sequence of Growth hormone secretagogue receptor type 1 (Q92847 whole entry): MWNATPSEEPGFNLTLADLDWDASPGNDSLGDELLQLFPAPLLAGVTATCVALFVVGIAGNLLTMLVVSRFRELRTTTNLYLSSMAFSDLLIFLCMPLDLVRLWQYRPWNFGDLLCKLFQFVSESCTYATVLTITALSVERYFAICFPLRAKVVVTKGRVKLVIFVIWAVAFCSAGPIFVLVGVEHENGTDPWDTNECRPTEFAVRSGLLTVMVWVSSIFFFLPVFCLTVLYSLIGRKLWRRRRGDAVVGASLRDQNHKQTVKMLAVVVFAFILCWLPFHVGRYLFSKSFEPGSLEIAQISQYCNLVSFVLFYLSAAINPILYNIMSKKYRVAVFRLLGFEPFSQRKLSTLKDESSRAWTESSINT
Experiment [6] in a line: Binding affinity to rat brain GABA receptor by radio-ligand binding assay.

Sequence of Voltage-dependent L-type calcium channel subunit alpha-1C (Q13936 whole entry): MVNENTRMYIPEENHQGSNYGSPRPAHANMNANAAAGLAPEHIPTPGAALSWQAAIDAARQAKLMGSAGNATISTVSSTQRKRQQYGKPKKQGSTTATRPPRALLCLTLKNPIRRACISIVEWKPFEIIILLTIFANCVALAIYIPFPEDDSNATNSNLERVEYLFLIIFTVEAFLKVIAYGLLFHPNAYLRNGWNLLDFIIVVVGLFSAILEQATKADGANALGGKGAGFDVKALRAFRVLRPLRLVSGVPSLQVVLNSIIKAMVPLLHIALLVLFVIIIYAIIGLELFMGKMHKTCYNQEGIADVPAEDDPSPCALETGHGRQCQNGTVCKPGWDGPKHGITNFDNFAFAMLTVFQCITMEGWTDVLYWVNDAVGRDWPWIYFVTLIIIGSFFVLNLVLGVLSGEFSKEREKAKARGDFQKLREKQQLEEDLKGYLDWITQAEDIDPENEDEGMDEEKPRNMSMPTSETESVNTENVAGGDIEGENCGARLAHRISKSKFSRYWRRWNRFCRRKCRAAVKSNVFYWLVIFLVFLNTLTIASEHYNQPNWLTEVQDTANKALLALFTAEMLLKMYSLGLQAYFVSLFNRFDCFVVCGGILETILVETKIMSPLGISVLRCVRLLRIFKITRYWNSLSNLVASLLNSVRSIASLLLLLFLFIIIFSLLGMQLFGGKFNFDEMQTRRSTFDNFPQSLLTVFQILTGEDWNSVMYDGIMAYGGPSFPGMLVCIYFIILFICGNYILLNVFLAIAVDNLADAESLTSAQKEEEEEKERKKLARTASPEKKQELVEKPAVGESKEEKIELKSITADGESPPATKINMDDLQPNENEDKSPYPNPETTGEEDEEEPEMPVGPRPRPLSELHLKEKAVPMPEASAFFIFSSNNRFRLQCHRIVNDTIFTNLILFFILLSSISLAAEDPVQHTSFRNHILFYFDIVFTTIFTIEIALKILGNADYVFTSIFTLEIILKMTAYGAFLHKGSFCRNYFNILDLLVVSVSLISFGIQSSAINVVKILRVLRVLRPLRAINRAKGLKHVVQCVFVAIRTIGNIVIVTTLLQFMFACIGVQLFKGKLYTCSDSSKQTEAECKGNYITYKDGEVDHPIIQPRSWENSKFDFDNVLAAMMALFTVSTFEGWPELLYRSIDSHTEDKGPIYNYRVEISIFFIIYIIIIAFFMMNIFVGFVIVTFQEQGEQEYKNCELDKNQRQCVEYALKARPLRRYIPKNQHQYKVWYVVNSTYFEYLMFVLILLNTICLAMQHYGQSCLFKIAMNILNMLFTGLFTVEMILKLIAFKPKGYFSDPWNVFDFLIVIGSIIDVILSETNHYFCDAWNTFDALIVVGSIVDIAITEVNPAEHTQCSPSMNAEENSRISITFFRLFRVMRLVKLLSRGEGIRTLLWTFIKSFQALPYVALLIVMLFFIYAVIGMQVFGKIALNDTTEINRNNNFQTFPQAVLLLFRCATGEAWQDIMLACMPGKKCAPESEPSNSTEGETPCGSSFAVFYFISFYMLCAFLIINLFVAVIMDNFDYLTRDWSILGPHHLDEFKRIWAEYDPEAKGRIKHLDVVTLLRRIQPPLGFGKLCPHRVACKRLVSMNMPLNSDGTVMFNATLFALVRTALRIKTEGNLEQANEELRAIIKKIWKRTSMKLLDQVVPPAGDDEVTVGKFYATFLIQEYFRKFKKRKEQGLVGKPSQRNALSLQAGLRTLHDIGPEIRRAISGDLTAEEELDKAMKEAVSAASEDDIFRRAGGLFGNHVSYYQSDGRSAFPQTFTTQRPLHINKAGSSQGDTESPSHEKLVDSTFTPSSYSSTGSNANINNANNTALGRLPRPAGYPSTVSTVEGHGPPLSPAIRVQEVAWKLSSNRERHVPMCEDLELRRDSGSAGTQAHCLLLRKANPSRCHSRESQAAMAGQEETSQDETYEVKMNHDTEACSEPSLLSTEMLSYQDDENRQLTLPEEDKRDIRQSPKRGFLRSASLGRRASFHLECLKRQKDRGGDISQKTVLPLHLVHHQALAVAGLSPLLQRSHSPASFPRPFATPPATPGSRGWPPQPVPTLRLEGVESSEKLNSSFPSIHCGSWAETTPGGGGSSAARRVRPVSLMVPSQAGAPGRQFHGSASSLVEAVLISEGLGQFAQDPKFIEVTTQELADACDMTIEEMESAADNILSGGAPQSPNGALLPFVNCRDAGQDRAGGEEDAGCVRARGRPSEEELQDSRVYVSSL

Regarding `Cc1nnc2sc(C(=O)NCc3ccc(S(=O)(=O)C(F)F)cc3)c(N)c2c1C`, the IC50 in experiment [1] was found to be 5.7 µM; in experiment [3], 0.6 µM. In addition, in experiment [2], the EC50 came out at 0.251 µM.
As for `Cc1nnc2sc(C(=O)NCc3ccc(S(=O)(=O)C(F)(F)F)cc3)c(N)c2c1C`, the IC50 in experiment [4] turned out to be 0.24 µM.
On to `Cc1nnc2sc(C(=O)NCc3ccc(S(F)(F)(F)(F)F)cc3)c(N)c2c1C`, for which the EC50 in experiment [2] amounted to 0.55 µM. Besides, the IC50 in experiment [5] is 6.5 µM; in experiment [3] it was 0.52 µM; in experiment [6] it was 2.1 µM.
